Experimental data published in patent US7395112B2, “Method and apparatus for treating tumors using low strength electric fields” (priority 2002, dated 2008).

Legend:
CT-26 colon carcinoma [1] = experiment: LEF with chemotherapy (LEFCT-EC) in mice bearing 5 mm CT-26 tumors; type: in vivo, BALB/C mice
Method: Mice: BALB/C male mice were obtained from the breeding colony of Tel-Aviv University, Israel. Mice were used at 8-12 weeks of age. Animal care and experimentation were performed in accordance with the Tel-Aviv University guidelines.
Tumor: Colon carcinoma tumors were grown in mice with CT-26, a metastatic colon carcinoma cell line induced in a BALB/c mouse by chemical carcinogenesis. Cells were cultured in Dulbecco's modified Eagle's medium (DMEM) supplemented with 100 U/ml penicillin, 100 μg/ml streptomycin, 2 mM L-glutamine; 1 mM sodium pyruvate; 1% non-essential amino acid solution; 10% heat-inactivated fetal calf serum. Cultures were maintained at 37° C. in a humidified incubator with a 5% CO2 atmosphere.
Tumor cell inoculation: Mice were inoculated intracutaneously with 10^5 CT-26 cells suspended in 100 μL PBS into the low lateral side of the back. Local tumor growth was determined by measuring three mutually orthogonal tumor diameters with a caliper. The volume of tumor was calculated using the formula: Vol=D1×D2×D3×π/6, where D1, D2, D3 are three mutually orthogonal tumor diameters.
(§1) Low-strength electric field stimulation: To subject tumors to LEFs, stainless steel needles were used as electrodes. Tumors 5 mm in diameter (about 65 mm^3) were transfixed by electrode needles, with one cathode in the center of the tumor and three or four peripheral anodes. The electrodes were connected to an electric pulse generator and to an oscilloscope. Pulsed LEFs with a repetition frequency of 500 Hz and a pulse width of 180 μs were applied at 20, 40, 60 and 70 V/cm for a duration 12 min or 20 min. The electric pulses were administered 2-4 min following chemotherapeutic drug administration. Mice were anesthetized 10 min before the procedure.
(§2) Chemotherapeutic agents: Bleomycin (Sigma Israel Chemicals Ltd., Israel; Megapharm Ltd., Israel) was kept at a temperature of 2-8° C., and was dissolved in pyrogen-free PBS to a concentration enabling dosages of 50 U/kg body weight prior to use. BCNU was administered at a dosage of 35 mg/kg body weight, and 5-FU (Abic, Israel) was used at a dose of 100 mg/kg body weight.
Anesthesia: Mice were anesthetized using an anesthetic cocktail comprising a dose of imalgen at 100 mg/kg body weight and xylazine hydrochloride at 6.25 mg/kg body weight dissolved in PBS injected intraperitoneally in a volume of 0.25 ml per mouse 10 min prior to LEF treatment.
Statistical analysis: Survival times (Kaplan-Meir test), survival comparisons between groups (Mantel-Cox test), and tumor volume differences between groups were plotted using StatSoft “Statistica” statistical software.
Effect of LEF duration and strength on potentiation of bleomycin for treatment of colon carcinoma: In order to determine the optimal LEFCT-EC/bleomycin therapy for treatment of colon cancer, mice bearing CT-26 tumors were treated with LEFs of 40 V/cm for 12 min, and 20 V/cm for 12 or 20 min with or without administration of bleomycin, and survival was analyzed.

B16-F10.9 melanoma [2] = experiment: LEFCT-EC in mice bearing subcutaneous B16-F10.9 melanoma; type: in vivo, C57BL/6 mice; settings: for Tumor size (mean ± standard error): 7 days after treatment
Method: Animals: C57BL/6 male mice were obtained from the breeding colony of Tel-Aviv University, Israel. Mice were used at 8-12 weeks of age. Animal care and experimentation was carried out in accordance with Tel-Aviv University guidelines.
Melanoma tumor cell line: The highly metastatic, poorly immunogenic B16-F10.9 (F10.9) subclone of the B16 melanoma cell line was used to generate melanoma tumors in mice (Eisenbach L. et al., 1984. Int J Cancer 34:567). Cells were maintained in DMEM supplemented with 100 U/ml penicillin, 100 μg/ml streptomycin, 4 mM glutamine, 1 mM sodium pyruvate, 1% non-essential amino acids and 10% heat-inactivated fetal calf serum (FCS); and were cultured at 37° C. in a humidified incubator in an atmosphere of 7% carbon dioxide and 93% air.
Tumor generation protocol: F10.9 tumors were induced in C57BL/6 mice by subcutaneous injection of 2×10^5 F10.9 cells. Mice were subjected to experimental treatments once tumors reached 5 mm in diameter (about 60-70 mm^3). Chemotherapeutic drugs: The following chemotherapeutic drugs used were: cis-platinum (II) diamminedichloride (cisplatin; #P-4394, Sigma, Israel), dissolved in PBS for injections; Taxol (Mead Johnson Oncology Products, A Bristol-Myers Squibb, USA), obtained as a sterile nonpyrogenic solution containing 6 mg/ml paclitaxel, 527 mg/ml of purified Cremophor EL (polyoxyethylated castor oil) and 5-FU (Abic, Israel).
Low-strength electric field enhanced cancer therapy protocol: Mice were subjected to a single treatment of LEFCT-EC, once tumors reached 5 mm in diameter (11-17 days following tumor cell inoculation). Volumes of up to 100 μl of chemotherapeutic agents were injected into tumor loci, and exposures to electric fields were carried out 3-4 min following intratumoral injection of chemotherapeutic agents. To expose tumors to electric fields, stainless steel electrode needles (Karlsbader insect pins No 0. BioQuip Products, USA) soldered at their brassy ends with thin isolated copper wires were used. Electrodes were inserted to a depth of about 7 mm percutaneously into and in the immediate vicinity of the tumor; one cathode needle in the center of the tumor and three peripheral anodes, at a distance of about 5 mm from the cathode. The needles were connected to an electric pulse generator (Grass S48 Stimulator, USA). The field strength applied was about 40 V/cm; the repetition frequency, 500 Hz; and the pulse width, 180 μs. All mice were anesthetized prior to LEF treatment.
Statistical analysis: Statistical analysis of survival times (Kaplan-Meir test), survival comparisons between groups (Mantel-Cox test) and tumor volume differences between groups (Kolmogorov-Smirnov test) were performed using StatSoft Statistica statistical software. The 10-15% mortality rate in the 5 days following LEF or LEF-chemotherapy was considered as treatment-caused, therefore such cases of mortality were excluded.
Tumor volume determination: performed as described above in Example 1 of the Examples section.

CT-26 colon carcinoma [3] = experiment: LEFCT-EC with BCNU in mice bearing large (10 or 15 mm) CT-26 tumors; type: in vivo, BALB/C mice; settings: for time after which all mice were dead: BCNU 35 mg/kg only; for cure rate: LEF 40 V/cm 12 min + BCNU 35 mg/kg
Method: as §1, §2
Effect of LEFCT-EC with BCNU on CT-26 development in mice bearing large tumors: In order to examine the effectiveness of LEFCT-EC with BCNU on tumor development in mice with a large tumor burden, mice bearing tumors of 10 mm (about 523 mm^3) or 15 mm in diameter (about 1,760 mm^3). These animals were treated with 4 electrodes placed 7 mm apart.

CT-26 colon carcinoma [4] = experiment: CT-26 cells inoculated with splenocytes from mice cured by LEFCT-EC with BCNU; type: in vivo, BALB/C mice; settings: donors cured by LEFCT-EC with BCNU; tumor cells to splenocytes 1:100
From the text: Anti-tumor effect of splenocytes from tumor bearing mice cured by LEFCT-EC with BCNU: In order to examine whether development of resistance against challenge with CT-26 tumors in mice cured of such tumors via LEFCT-EC with BCNU is immunologically mediated, normal mice were inoculated with a dose of CT-26 tumor cells mixed with splenocytes from cured animals. […] Thus, curative LEFCT-EC+BCNU treatment of CT-26 tumor bearing mice induces immunological resistance to subsequent growth of such tumors in such mice.

CT-26 colon carcinoma [5] = test system: CT-26 colon carcinoma
B16-F10.9 melanoma [6] = experiment: Rechallenge with B16-F10.9 cells of mice cured by LEFCT-EC; type: in vivo, C57BL/6 mice; settings: mice cured by LEFCT-EC with the drug, challenged with 2×10^5 B16-F10.9 cells
From the text: FIG. 17 is a data plot depicting the cumulative survival of mice previously bearing B16-F10.9 melanoma and cured by LEFCT-EC with cisplatin or taxol following challenge with B16-F10.9 melanoma cells. Mice cured by LEF-chemotherapy that survived for 120-180 days after initial tumor inoculation, were challenged with 2×10^5 B16-F10.9 cells subcutaneously.
Effect of curative LEFCT-EC treatment on generation of anti B16-F10.9 tumor resistance: The resistance of mice cured of B16-F10.9 melanoma by LEF-chemotherapy was analyzed by challenging such cured mice with a tumorigenic dose of B16-F 10.9 melanoma cells.

[7] = LEF-CT (drug + LEF), cisplatin 4 mg/kg, bleomycin 8 U/kg, 5-FU 150 mg/kg, taxol 20 mg/kg
[8] = intratumoral drug injection alone, same doses
[9] = chemotherapy alone, intratumoral, no LEF

O=c1[nH]cc(F)c(=O)[nH]1 [5-FU, 5-fluorouracil]
time at which half of the mice were still alive (CT-26 colon carcinoma [1]; 5-FU 100 mg/kg intratumoral or intravenous + LEF 40 V/cm 12 min): 80 days
Tumor size (mean ± standard error) (B16-F10.9 melanoma [2]; [7]): 143 ± 52 mm^3
Tumor size (mean ± standard error) (B16-F10.9 melanoma [2]; [8]): 460 ± 54 mm^3

O=NN(CCCl)C(=O)NCCCl [BCNU]
survival rate (CT-26 colon carcinoma [1]; BCNU 35 mg/kg intratumoral + LEF 40 V/cm 12 min, after 52 days, unchanged until day 110): 83%
survival (CT-26 colon carcinoma [1]; BCNU + LEF 40 V/cm, comparison with surgery, after about 60 days until about 120 days): 40%
cure rate (CT-26 colon carcinoma [1]; LEFCT-EC: drug + LEF 40 V/cm 12 min, 5 mm tumors): 83%
tumor size with drug only relative to drug + LEF (CT-26 colon carcinoma [1]; after 21 days): about triple the size
time after which half the mice died (CT-26 colon carcinoma [1]; drug alone, no LEF, intratumoral injection (5-FU intratumoral or intravenous), 5 mm tumors): about 48 days
tumor size with LEFCT-EC + BCNU relative to BCNU alone (CT-26 colon carcinoma [3]; 10 mm tumors): approximately an order of magnitude smaller
time after which all mice were dead (CT-26 colon carcinoma [3]; 10 mm tumors): 90 days
time after which all mice were dead (CT-26 colon carcinoma [3]; 15 mm tumors): 87 days
cure rate (CT-26 colon carcinoma [3]; 10 mm tumors): over 80%
cure rate (CT-26 colon carcinoma [3]; 15 mm tumors): 100%
survival (CT-26 colon carcinoma [3]; LEF with BCNU, 15 mm tumors, after 100 days): 100%
tumor detection (CT-26 colon carcinoma [3]; LEFCT-EC with BCNU, 15 mm tumors, after 42 days): no tumors were detected
tumor growth with splenocytes from cured mice (CT-26 colon carcinoma [4]): completely prevent growth of tumors
tumor volume of reinoculated mice relative to first-time inoculated mice (CT-26 colon carcinoma [5]; after 18 days): about one order of magnitude smaller
day by which half of the cured and challenged mice were still alive (CT-26 colon carcinoma [5]; mice cured by LEFCT-EC with BCNU, challenged with 10^5 CT-26 cells): ~63 days

N.N.[Cl-].[Cl-].[Pt+2] [cisplatin, cis-platinum (II) diamminedichloride]
Tumor size (mean ± standard error) (B16-F10.9 melanoma [2]; [7]): 83 ± 57 mm^3
mean survival time (MST) (B16-F10.9 melanoma [2]; LEF-chemotherapy: intratumoral drug + LEF about 40 V/cm 12 min, 120 days (cisplatin) or 180 days (taxol, bleomycin) after inoculation): 51.1 days
animals tumor free (B16-F10.9 melanoma [2]; LEF-chemotherapy, 120 days after tumor inoculation): 13.5%
effect of drug alone on survival (B16-F10.9 melanoma [2]; [9]): no significant effect
mean survival time (MST) (B16-F10.9 melanoma [2]; [9]): 29.5 days
Tumor size (mean ± standard error) (B16-F10.9 melanoma [2]; [8]): 1684 ± 204 mm^3
LEFCT-EC treated mice that died two months and later after treatment with pulmonary metastatic foci, free of primary tumor (B16-F10.9 melanoma [2]; pooled statement for cisplatin, taxol or bleomycin): About 10%
MST of challenged mice (B16-F10.9 melanoma [6]): 48.7 days
